In assay [1] the target is norepinephrine transporter (Homo sapiens, UniProt P23975). In words: NE uptake: displacement of norephinephrine ligands in vitro (methods of Galli et al.). The class given is binding.
Assay [2] deals with serotonin transporter (Homo sapiens, UniProt P31645). Kind of assay: 5-HT uptake: displacement of serotonin ligands in vitro (methods of Gu et al.). The class given is binding. The following applies: displacement of serotonin ligands in vitro; read-out: 5-HT Uptake, Uptake Profile (IC50).
Sequence of serotonin transporter (P31645 whole entry): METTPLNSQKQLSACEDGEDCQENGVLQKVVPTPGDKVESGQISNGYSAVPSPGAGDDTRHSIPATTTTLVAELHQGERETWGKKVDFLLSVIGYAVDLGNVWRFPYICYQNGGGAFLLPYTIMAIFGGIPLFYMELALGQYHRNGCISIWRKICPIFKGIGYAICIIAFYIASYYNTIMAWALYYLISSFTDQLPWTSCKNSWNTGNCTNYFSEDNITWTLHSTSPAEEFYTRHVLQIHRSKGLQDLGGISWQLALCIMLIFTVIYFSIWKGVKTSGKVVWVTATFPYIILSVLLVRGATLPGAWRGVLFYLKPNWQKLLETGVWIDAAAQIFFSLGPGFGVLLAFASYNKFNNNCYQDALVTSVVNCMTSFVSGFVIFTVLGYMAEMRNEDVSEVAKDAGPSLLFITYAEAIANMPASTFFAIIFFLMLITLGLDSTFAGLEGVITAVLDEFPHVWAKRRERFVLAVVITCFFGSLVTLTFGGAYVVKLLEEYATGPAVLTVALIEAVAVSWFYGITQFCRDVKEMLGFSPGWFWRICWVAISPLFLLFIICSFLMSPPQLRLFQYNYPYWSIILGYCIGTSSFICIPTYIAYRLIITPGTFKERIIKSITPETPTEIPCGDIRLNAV
Assay [3] concerns the target dopamine transporter (Homo sapiens, UniProt Q01959). In words: DA uptake: displacement of dopamine ligands in vitro (methods of Gu et al.). To be noted: DA Uptake, Uptake Profile (IC50, nM), displacement of dopamine ligands in vitro.
Setting [4] is: NE Uptake, Uptake Profile (IC50, nM).

The structures appear in SMILES notation. Like-named read-outs stand apart in the source and are kept apart here.

Sequence of norepinephrine transporter (P23975 whole entry): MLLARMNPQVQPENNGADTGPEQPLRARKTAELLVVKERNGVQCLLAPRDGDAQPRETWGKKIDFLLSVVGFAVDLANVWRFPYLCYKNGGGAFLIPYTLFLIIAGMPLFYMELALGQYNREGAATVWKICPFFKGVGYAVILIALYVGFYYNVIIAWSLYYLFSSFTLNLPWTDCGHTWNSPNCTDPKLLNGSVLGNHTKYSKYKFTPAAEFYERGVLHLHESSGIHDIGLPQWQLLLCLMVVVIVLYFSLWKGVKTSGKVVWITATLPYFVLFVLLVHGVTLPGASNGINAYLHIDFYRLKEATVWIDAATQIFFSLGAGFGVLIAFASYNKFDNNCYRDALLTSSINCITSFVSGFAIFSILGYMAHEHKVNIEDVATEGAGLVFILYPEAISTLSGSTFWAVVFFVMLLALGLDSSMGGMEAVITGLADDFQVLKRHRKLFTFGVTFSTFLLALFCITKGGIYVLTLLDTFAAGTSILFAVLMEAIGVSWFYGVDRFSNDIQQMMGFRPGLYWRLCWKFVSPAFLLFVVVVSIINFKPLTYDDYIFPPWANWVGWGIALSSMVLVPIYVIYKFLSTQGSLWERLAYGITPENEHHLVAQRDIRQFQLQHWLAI
Sequence of dopamine transporter (Q01959 whole entry): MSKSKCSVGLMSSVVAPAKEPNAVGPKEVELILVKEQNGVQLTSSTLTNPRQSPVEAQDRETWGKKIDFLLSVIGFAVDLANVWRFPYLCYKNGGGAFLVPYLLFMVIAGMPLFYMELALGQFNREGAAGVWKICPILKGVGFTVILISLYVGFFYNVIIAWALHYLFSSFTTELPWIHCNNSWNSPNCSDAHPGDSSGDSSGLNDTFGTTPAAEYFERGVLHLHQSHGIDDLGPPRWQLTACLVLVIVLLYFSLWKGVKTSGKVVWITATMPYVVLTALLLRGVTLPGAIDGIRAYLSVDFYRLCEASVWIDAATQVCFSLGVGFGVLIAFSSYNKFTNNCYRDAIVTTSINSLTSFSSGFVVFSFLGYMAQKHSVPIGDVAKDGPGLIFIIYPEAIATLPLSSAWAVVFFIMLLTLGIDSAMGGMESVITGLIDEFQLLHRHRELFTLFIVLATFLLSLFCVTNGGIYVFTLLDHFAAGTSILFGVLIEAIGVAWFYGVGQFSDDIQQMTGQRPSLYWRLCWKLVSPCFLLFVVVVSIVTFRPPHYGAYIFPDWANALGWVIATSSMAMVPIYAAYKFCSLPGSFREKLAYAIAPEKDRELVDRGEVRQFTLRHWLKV

Regarding `OC1CCCN(CC2(c3ccc(Cl)cc3)CCC2)C1` (stereo not drawn) [compound 89, 1-[1-(4-Chlorophenyl)cyclobutylmethyl]piperidin-3-ol], the IC50 (usually the midpoint of a concentration-inhibition curve) in assay [1] (setting [4]) is under 1000 nM; in assay [2], over 1 µM; in assay [3], under 1000 nM.

With `COc1ccc2[nH]cc(CCN3CCCC(COc4ccc(C(F)(F)F)cc4)C3)c2c1` (stereo not drawn) [compound 220, 5-Methoxy-3-{2-[3-(4-trifluoromethyl-phenoxymethyl)-piperidin-1-yl]-ethyl}-1H-indole], the IC50 in assay [1] (setting [4]) is under 1000 nM; in assay [2] it was under 0.1 µM; in assay [3], under 1000 nM.

In the case of `FC(F)(F)c1ccc(CCC2CCCN(CC3(c4ccc(Cl)cc4)CCC3)C2)cc1` (stereo not drawn) [compound 95, 1-[1-(4-Chloro-phenyl)-cyclobutylmethyl]-3-[2-(4-trifluoromethyl-phenyl)-ethyl]-piperidine], the IC50 was over 1000 nM in assay [1] (read-out: NE Uptake, Uptake Profile (IC50)); under 1 µM in assay [2]; under 1000 nM in assay [3].

Turning to `FC(F)(F)c1ccc(OCC2CCCCN(CC3(c4ccc(Cl)cc4)CCC3)C2)cc1` (stereo not drawn) [compound 168, 1-[1-(4-Chloro-phenyl)-cyclobutylmethyl]-3-(4-trifluoromethyl-phenoxymethyl)-azepane], the IC50 was under 1000 nM in assay [1] (setting [4]), over 1 µM in assay [2] and under 100 nM in assay [3].

With `OC(CN1CCCC(CCc2ccc(C(F)(F)F)cc2)C1)c1ccc(Cl)cc1` (single isomer, unassigned) [compound 154, 1-(4-Chloro-phenyl)-2-{3-[2-(4-trifluoromethyl-phenyl)-ethyl]-piperidin-1-yl}-ethanol], the IC50 in assay [1] (setting [4]) is under 100 nM; in assay [2] it was under 0.01 µM; in assay [3], under 10 nM.

Turning to `CO[C@@H](CN1CCC[C@H](COc2ccc(C(F)(F)F)cc2)C1)C1(c2ccc(Cl)cc2)CCC1` [compound 162], the figures for the IC50 in assay [1] (setting [4]), in assay [2] and in assay [3] were over 1000 nM, under 1 µM and under 100 nM, respectively.

In the case of `OC(CN1CCCC(CCc2ccc(C(F)(F)F)cc2)C1)C1(c2ccc(Cl)cc2)CCC1` (single isomer, unassigned) [compound 192, 1-[1-(4-Chloro-phenyl)-cyclobutyl]-2-{3-[2-(4-trifluoromethyl-phenyl)-ethyl]-piperidin-1-yl}-ethanol], the IC50 in assay [1] (setting [4]) is under 1000 nM; in assay [2], under 1 µM; in assay [3], under 10 nM.

For `OC(CN1CCCC(COc2ccc(C(F)(F)F)cc2)C1)C1(c2ccccc2OC(F)(F)F)CCC1` (single isomer, unassigned) [compound 227, 1-[1-(2-Trifluoromethoxy-phenyl)-cyclobutyl]-2-[3-(4-trifluoromethyl-phenoxymethyl)-piperidin-1-yl]-ethanol], the IC50 is over 1000 nM in assay [1] (setting [4]), under 1 µM in assay [2] and under 1000 nM in assay [3].

On to `OC(CN1CCCC(CCc2ccc(C(F)(F)F)cc2)C1)C1(c2ccc(Cl)cc2)CCC1` (single isomer, unassigned) [compound 193, 1-[1-(4-Chloro-phenyl)-cyclobutyl]-2-{3-[2-(4-trifluoromethyl-phenyl)-ethyl]-piperidin-1-yl}-ethanol], for which the IC50 in assay [1] (setting [4]) is under 10 nM; in assay [2], under 1 µM; in assay [3], under 10 nM.

On to `FC(F)(F)c1ccc(OCC2CCCN(CC3COc4ccccc4O3)C2)cc1` (single isomer, unassigned) [compound 177, 1-(2,3-Dihydro-benzo[1,4]dioxin-2-ylmethyl)-3-(4-trifluoromethyl-phenoxymethyl)-piperidine], for which the IC50 was over 1000 nM in assay [1] (setting [4]), under 1 µM in assay [2] and over 1000 nM in assay [3].

Take `OC(CN1CCCC(COc2ccccc2)C1)c1ccc(Cl)cc1` (stereo not drawn) [compound 33, 1-(4-Chloro-phenyl)-2-(3-phenoxymethyl-piperidin-1-yl)-ethanol]: the figures for the IC50 in assay [1] (setting [4]), in assay [2] and in assay [3] were under 1000 nM, under 1 µM and under 100 nM, respectively.

Turning to `OC(CN1CCCC(COc2ccc(OC(F)(F)F)cc2)C1)C1(c2ccc(Cl)cc2)CCC1` (stereo not drawn) [compound 210, 1-[1-(4-Chloro-phenyl)-cyclobutyl]-2-[3-(4-trifluoromethoxy-phenoxymethyl)-piperidin-1-yl]-ethanol], the IC50 in assay [1] (setting [4]) was under 100 nM; in assay [2], under 1 µM; in assay [3], under 10 nM.

`COc1ccc(C2(CN3CCC[C@H](COc4ccc(OC(F)(F)F)cc4)C3)CCC2)cc1` [compound 171, (S)-1-[1-(4-Methoxy-phenyl)-cyclobutylmethyl]-3-(4-trifluoromethoxy-phenoxymethyl)-piperidine]: the IC50 in assay [1] (setting [4]) is under 1000 nM; in assay [2] it was under 1 µM; in assay [3], under 10 nM.

For the compound `OC(CN1CCCC(COc2ccc(C(F)(F)F)cc2)C1)c1c[nH]c2ccc(Cl)cc12` (stereo not drawn) [compound 222, 1-(5-Chloro-1H-indol-3-yl)-2-[3-(4-trifluoromethyl-phenoxymethyl)-piperidin-1-yl]-ethanol], the IC50 in assay [1] (setting [4]) is over 1000 nM; in assay [2], under 1 µM; in assay [3], over 1000 nM.

As to `c1ccc(OCC2CCCN(CC3(c4ccccc4)CCC3)C2)cc1` (stereo not drawn) [compound 34, 3-Phenoxymethyl-1-(1-phenyl-cyclobutylmethyl)-piperidine], the 50% inhibitory concentration (IC50) in assay [1] (setting [4]) was under 1000 nM; in assay [2], under 1 µM; in assay [3] it was under 1000 nM.

Regarding `FC(F)(F)c1ccc(OCC2CCCN(CC3COc4ccccc4O3)C2)cc1` (single isomer, unassigned) [compound 176, 1-(2,3-Dihydro-benzo[1,4]dioxin-2-ylmethyl)-3-(4-trifluoromethyl-phenoxymethyl)-piperidine], the IC50 in assay [1] (setting [4]) was over 1000 nM; in assay [2], under 1 µM; in assay [3], under 1000 nM.

`OC(CN1CCCC(CCc2ccc(C(F)(F)F)cc2)C1)c1ccc(Cl)cc1` (single isomer, unassigned) [compound 152, 1-(4-Chloro-phenyl)-2-{3-[2-(4-trifluoromethyl-phenyl)-ethyl]-piperidin-1-yl}-ethanol]: the results for the IC50 in assay [1] (setting [4]), in assay [2] and in assay [3] were under 1000 nM, under 0.1 µM and under 1000 nM, respectively.

For the compound `CO[C@@H](CN1CCC[C@@H](COc2ccc(C(F)(F)F)cc2)C1)C1(c2ccc(Cl)cc2)CCC1` [compound 160], the IC50 is over 1000 nM in assay [1] (setting [4]), under 1 µM in assay [2] and under 100 nM in assay [3].

On to `FC(F)(F)c1ccc(OCC2CCCN(CC3(c4ccc(Cl)cc4)CCOCC3)C2)cc1` (stereo not drawn) [compound 159, 1-[4-(4-Chloro-phenyl)-tetrahydro-piran-4-ylmethyl]-3-(4-trifluoromethyl-phenoxymethyl)piperidine], for which the IC50 was under 1000 nM in assay [1] (setting [4]), under 1 µM in assay [2] and under 100 nM in assay [3].

For the compound `OC(CN1CCCC(CCc2ccccc2)C1)c1ccc(Cl)cc1` (single isomer, unassigned) [compound 141, 1-(4-Chloro-phenyl)-2-(3-phenethyl-piperidin-1-yl)-ethanol], the IC50 in assay [1] (setting [4]) was under 1000 nM; in assay [2], under 1 µM; in assay [3], under 1000 nM.

Regarding `CO[C@H](CN1CCC[C@@H](COc2ccc(C(F)(F)F)cc2)C1)C1(c2ccc(Cl)cc2)CCC1` [compound 161], the results for the IC50 in assay [1] (setting [4]), in assay [2] and in assay [3] were under 1000 nM, under 1 µM and under 10 nM, respectively.

Source of the values: patent US7294637B2 (Sepracor, Inc., priority 2000, dated 2007).
